Laboratory results published in patent US20250034186A1, “ANTIVIRAL COMPOUNDS” (priority 2020, published 2025).

Assay: PBMC in-vitro intracellular triphosphate formation assay
Format: in vitro ADME
Conditions: 2 μM, 2 hours incubation, compared to compound 2 and/or 6 (FIG. 2)
Experimental: In-vitro intracellular triphosphate formation was measured for the compound of Formula I and compounds 2 and 6 using the following protocol. Freshly-isolated PBMC's were derived from a healthy donor and were suspended to a concentration of 5 million cells/mL in culture medium ([…] containing L-glutamine) prior to the start of the experiment. 10 mL aliquots of PBMCs were transferred to 50 mL conical tubes with loosened caps and compounds were added to a final concentration of 2 μM. 1 mL aliquots were then transferred to the wells of a 24-well plate per sample. The PBMC-compound mixtures were incubated for 2 hours at 37° c./5% CO2 under gentle agitation. Following incubation, PBMCs were spun at 5000 RPM for 3 min and supernatants were aspirated without disturbing the cell pellet. For samples undergoing immediate analysis, samples were resuspended in pre-cooled 1× Tris-buffered saline and were transferred to 1.5 mL conical tubes containing 0.5 mL of nyosil M25. Samples/Oil aliquots were then spun for 1 min at 13,000 RPM. Following centrifugation, all media was aspirated from the tubes without disturbing the oil layer. Water was added on top of the oil layer and the spinning/aspiration process was repeated followed by an additional water wash. […]

C[C@H](N[P@](=O)(OC[C@@]1(C#N)O[C@@H](c2ccc3c(N)ncnn23)[C@H](O)[C@@H]1O)Oc1ccccc1)C(=O)OC1CCCCC1 [Formula I, cyclohexyl ((S)-(((2R,3S,4R,5S)-5-(4-aminopyrrolo[2,1-f][1,2,4]triazin-7-yl)-2-cyano-3,4-dihydroxytetrahydrofuran-2-yl)methoxy)(phenoxy)phosphoryl)-L-alaninate]
in-vitro intracellular NTP formation in PBMCs: lower
